ChEMBL document CHEMBL2413072, “Synthesis and in vitro anticancer studies of novel C-2 arylidene congeners of lantadenes” (2013)

What was measured:
Format in all cases: functional
NCI-H23 [1] = test: Growth inhibition of human NCI-H23 cells by sulforhodamine B assay
OVCAR-8 = test: Growth inhibition of human OVCAR8 cells assessed as cell growth at 10^-8 M by sulforhodamine B assay; conditions: read-out: Activity
SNB-75 = test: Growth inhibition of human SNB75 cells assessed as cell growth at 10^-4 M by sulforhodamine B assay; conditions: read-out: Activity
SK-MEL-2 = test: Growth inhibition of human SK-MEL-2 cells assessed as cell growth at 10^-6 M by sulforhodamine B assay; conditions: read-out: Activity
NCI-H522 = test: Growth inhibition of human NCI-H522 cells assessed as cell growth at 10^-4 M by sulforhodamine B assay; conditions: read-out: Activity
TK-10 = test: Growth inhibition of human TK10 cells assessed as cell growth at 10^-7 M by sulforhodamine B assay; conditions: read-out: Activity
SR = test: Growth inhibition of human SR cells assessed as cell growth at 10^-8 M by sulforhodamine B assay; conditions: read-out: Activity
MDA-MB-468 [2] = test: Growth inhibition of human MDA-MB-468 cells assessed as cell growth at 10^-6 M by sulforhodamine B assay; conditions: read-out: Activity
SF-295 = test: Growth inhibition of human SF295 cells assessed as cell growth at 10^-8 M by sulforhodamine B assay; conditions: read-out: Activity
COLO 205 = test: Growth inhibition of human COLO205 cells assessed as cell growth at 10^-8 M by sulforhodamine B assay; conditions: read-out: Activity
SF-268 = test: Growth inhibition of human SF268 cells by sulforhodamine B assay
786-0 = test: Growth inhibition of human 786-0 cells assessed as cell growth at 10^-4 M by sulforhodamine B assay; conditions: read-out: Activity
[3] = Growth inhibition of human HCC2998 cells assessed as cell growth at 10^-7 M by sulforhodamine B assay; conditions: HCC 2998, read-out: Activity
NCI-H23 [4] = test: Growth inhibition of human NCI-H23 cells assessed as cell growth at 10^-8 M by sulforhodamine B assay; conditions: read-out: Activity
[5] = Growth inhibition of human HCC2998 cells assessed as cell growth at 10^-6 M by sulforhodamine B assay; conditions: HCC 2998, read-out: Activity
[6] = Growth inhibition of human Hs 578T cells assessed as cell growth at 10^-6 M by sulforhodamine B assay; conditions: read-out: Activity
LOX IMVI = test: Growth inhibition of human LOXIMVI cells assessed as cell growth at 10^-8 M by sulforhodamine B assay; conditions: read-out: Activity
A549 = test: Growth inhibition of human A549/ATCC cells assessed as cell growth at 10^-8 M by sulforhodamine B assay; conditions: read-out: Activity
MDA-MB-435 = test: Growth inhibition of human MDA-MB-435 cells assessed as cell growth at 10^-4 M by sulforhodamine B assay; conditions: read-out: Activity
[7] = Growth inhibition of human NCI-ADR-RES cells by sulforhodamine B assay
MDA-MB-468 [8] = test: Growth inhibition of human MDA-MB-468 cells by sulforhodamine B assay
CAKI-1 [9] = test: Growth inhibition of human CAKI-1 cells assessed as cell growth at 10^-6 M by sulforhodamine B assay; conditions: read-out: Activity
HL-60(TB) = test: Growth inhibition of human HL-60(TB) cells assessed as cell growth at 10^-6 M by sulforhodamine B assay; conditions: read-out: Activity
MOLT-4 = test: Growth inhibition of human MOLT4 cells assessed as cell growth at 10^-6 M by sulforhodamine B assay; conditions: read-out: Activity
ACHN [10] = test: Growth inhibition of human ACHN cells assessed as cell growth at 10^-6 M by sulforhodamine B assay; conditions: read-out: Activity
KM12 = test: Growth inhibition of human KM12 cells assessed as cell growth at 10^-6 M by sulforhodamine B assay; conditions: read-out: Activity
SK-OV-3 = test: Growth inhibition of human SKOV3 cells assessed as cell growth at 10^-8 M by sulforhodamine B assay; conditions: read-out: Activity
ACHN [11] = test: Growth inhibition of human ACHN cells assessed as cell growth at 10^-4 M by sulforhodamine B assay; conditions: read-out: Activity
HT-29 = test: Growth inhibition of human HT-29 cells assessed as cell growth at 10^-4 M by sulforhodamine B assay; conditions: read-out: Activity
BT-549 = test: Growth inhibition of human BT549 cells assessed as cell growth at 10^-4 M by sulforhodamine B assay; conditions: read-out: Activity
CAKI-1 [12] = test: Growth inhibition of human CAKI-1 cells assessed as cell growth at 10^-7 M by sulforhodamine B assay; conditions: read-out: Activity
HCT-116 = test: Growth inhibition of human HCT116 cells assessed as cell growth at 10^-7 M by sulforhodamine B assay; conditions: read-out: Activity
OVCAR-3 = test: Growth inhibition of human OVCAR3 cells assessed as cell growth at 10^-6 M by sulforhodamine B assay; conditions: read-out: Activity
SF-539 [13] = test: Growth inhibition of human SF539 cells assessed as cell growth at 10^-4 M by sulforhodamine B assay; conditions: read-out: Activity
HOP-92 = test: Growth inhibition of human HOP92 cells assessed as cell growth at 10^-7 M by sulforhodamine B assay; conditions: read-out: Activity
IGROV-1 = test: Growth inhibition of human IGROV1 cells assessed as cell growth at 10^-6 M by sulforhodamine B assay; conditions: read-out: Activity
SF-539 [14] = test: Growth inhibition of human SF539 cells assessed as cell growth at 10^-6 M by sulforhodamine B assay; conditions: read-out: Activity
HCT-15 = test: Growth inhibition of human HCT15 cells by sulforhodamine B assay
NCI-H226 = test: Growth inhibition of human NCI-H226 cells assessed as cell growth at 10^-8 M by sulforhodamine B assay; conditions: read-out: Activity
RXF 393 = test: Growth inhibition of human RXF393 cells assessed as cell growth at 10^-6 M by sulforhodamine B assay; conditions: read-out: Activity
[15] = Growth inhibition of human NCI-ADR-RES cells assessed as cell growth at 10^-6 M by sulforhodamine B assay; conditions: read-out: Activity
SNB-19 = test: Growth inhibition of human SNB19 cells by sulforhodamine B assay
[16] = read-out: LC50 (the source's name)
[17] = read-out: pLC50 (the source's name) (converted)

With `C/C=C(/C)C(=O)O[C@@H]1CC(C)(C)C[C@H]2C3=CC[C@@H]4[C@@]5(C)CCC(=O)C(C)(C)[C@@H]5CC[C@@]4(C)[C@]3(C)CC[C@@]12C(=O)O` [LANTADENE A] the GI50 (NCI-H23 [1]; read-out: GI50) was 4.55 µM, the CC50 (NCI-H23 [1]; [16]) was > 100 µM and the TGI (NCI-H23 [1]; read-out: TGI) was > 100 µM. For the same molecule, the GI50 (NCI-H23 [1]; read-out: pGI50 (converted)) was 4.57 µM, the CC50 (NCI-H23 [1]; [17]) was > 100 µM and the TGI (NCI-H23 [1]; read-out: pTGI (converted)) was > 100 µM. It also gave a growth at 0.01 µM (OVCAR-8) of 97%, a growth at 100 µM (SNB-75) of 33% and a growth at 1 µM (SK-MEL-2) of 108%. It also gave a growth at 100 µM (NCI-H522) of -4%, a growth at 0.1 µM (TK-10) of 102% and a growth at 0.01 µM (SR) of 84%. It also gave a growth at 1 µM (MDA-MB-468 [2]) of 74%, a growth at 0.01 µM (SF-295) of 96% and a growth at 0.01 µM (COLO 205) of 106%. The GI50 (SF-268; read-out: GI50) was 5.96 µM, the LC50 (SF-268; read-out: LC50) was > 100 µM and the TGI (SF-268; read-out: TGI) was > 100 µM. For the same molecule, the GI50 (SF-268; read-out: pGI50 (converted)) was 6.03 µM, the LC50 (SF-268; read-out: pLC50 (converted)) was > 100 µM and the TGI (SF-268; read-out: pTGI (converted)) was > 100 µM. For the same molecule, the growth at 100 µM (786-0) was 4%, the growth at 0.1 µM [3] was 108% and the growth at 0.01 µM (NCI-H23 [4]) was 100%. The growth at 1 µM [5] was 98%, the growth at 1 µM [6] was 91% and the growth at 0.01 µM (LOX IMVI) was 96%. The growth at 0.01 µM (A549) was 94%, the growth at 100 µM (MDA-MB-435) was 25% and the GI50 ([7]; read-out: GI50) was 5.12 µM. The CC50 [7, 16] was > 100 µM, the TGI ([7]; read-out: TGI) was > 100 µM and the GI50 ([7]; read-out: pGI50 (converted)) was 5.13 µM. For the same molecule, the CC50 [7, 17] was > 100 µM, the TGI ([7]; read-out: pTGI (converted)) was > 100 µM and the GI50 (MDA-MB-468 [8]; read-out: GI50) was 2.58 µM. The CC50 (MDA-MB-468 [8]; [16]) was > 100 µM, the TGI (MDA-MB-468 [8]; read-out: TGI) was > 100 µM and the GI50 (MDA-MB-468 [8]; read-out: pGI50 (converted)) was 2.57 µM. The CC50 (MDA-MB-468 [8]; [17]) was > 100 µM, the TGI (MDA-MB-468 [8]; read-out: pTGI (converted)) was > 100 µM and the growth at 1 µM (CAKI-1 [9]) was 88%. The growth at 1 µM (HL-60(TB)) was 80%, the growth at 1 µM (MOLT-4) was 89% and the growth at 1 µM (ACHN [10]) was 92%. For the same molecule, the growth at 1 µM (KM12) was 84%, the growth at 0.01 µM (SK-OV-3) was 103% and the growth at 100 µM (ACHN [11]) was 16%. For the same molecule, the growth at 100 µM (HT-29) was 19%, the growth at 100 µM (BT-549) was 18% and the growth at 0.1 µM (CAKI-1 [12]) was 94%. For the same molecule, the growth at 0.1 µM (HCT-116) was 90%, the growth at 1 µM (OVCAR-3) was 105% and the growth at 100 µM (SF-539 [13]) was 17%. For the same molecule, the growth at 0.1 µM (HOP-92) was 71%, the growth at 1 µM (IGROV-1) was 108% and the growth at 1 µM (SF-539 [14]) was 106%. The GI50 (HCT-15; read-out: GI50) was 3.17 µM, the LC50 (50% lethal concentration) (HCT-15; read-out: LC50) was > 100 µM and the TGI (HCT-15; read-out: TGI) was > 100 µM. For the same molecule, the GI50 (HCT-15; read-out: pGI50 (converted)) was 3.16 µM, the LC50 (50% lethal concentration) (HCT-15; read-out: pLC50 (converted)) was > 100 µM and the TGI (HCT-15; read-out: pTGI (converted)) was > 100 µM. The growth at 0.01 µM (NCI-H226) was 85%, the growth at 1 µM (RXF 393) was 81% and the growth at 1 µM [15] was 97%. For the same molecule, the GI50 (SNB-19; read-out: GI50) was 4.67 µM, the CC50 (SNB-19; [16]) was > 100 µM and the TGI (SNB-19; read-out: TGI) was > 100 µM. The GI50 (SNB-19; read-out: pGI50 (converted)) was 4.68 µM, the CC50 (SNB-19; [17]) was > 100 µM and the TGI (SNB-19; read-out: pTGI (converted)) was > 100 µM.
